Results on 15 compounds are retold here after PubChem BioAssay AID248 (DTP/NCI, 2004).

The assay relates to L1210 leukemia ip in BDF1 mice, survival T/C. Description: NCI In Vivo Anticancer Drug Screen. Data for tumor model L1210 Leukemia (intraperitoneal) in B6D2F1 (BDF1) mice. The settings on record: higher = longer survival. In outline: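 Antitumor effect is assessed in tumor-bearing animals. Survival in the compound arm is compared with a vehicle-dosed control arm and expressed as their quotient.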

The mark [1] stands for this setting: endpoint: mean survival time, dose: 50.0 mg/kg/injection, schedule: Q01DX001 (ip), vehicle: Klucel (hydroxypropylcellulose) (HPC).
Where [2] appears, read: endpoint: mean survival time, dose: 100.0 mg/kg/injection, schedule: Q01DX001 (ip), vehicle: Klucel (hydroxypropylcellulose) (HPC).
Where [3] appears, read: endpoint: mean survival time, dose: 200.0 mg/kg/injection, schedule: Q01DX001 (ip), vehicle: carboxymethylcellulose (CMC).
Setting [4] is: endpoint: mean survival time, dose: 300.0 mg/kg/injection, schedule: Q01DX001 (ip), vehicle: carboxymethylcellulose (CMC).
The mark [5] stands for this setting: endpoint: mean survival time, dose: 100.0 mg/kg/injection, schedule: Q01DX009 (ip), vehicle: saline with Tween-80.
[6] abbreviates: endpoint: mean survival time, dose: 100.0 mg/kg/injection, schedule: Q04DX002 (ip), vehicle: saline with Tween-80.
[7] abbreviates: endpoint: mean survival time, dose: 200.0 mg/kg/injection, schedule: Q01DX009 (ip), vehicle: saline with Tween-80.
The mark [8] stands for this setting: endpoint: mean survival time, dose: 200.0 mg/kg/injection, schedule: Q04DX002 (ip), vehicle: saline with Tween-80.
Where [9] appears, read: endpoint: mean survival time, dose: 400.0 mg/kg/injection, schedule: Q04DX002 (ip), vehicle: saline with Tween-80.
The mark [10] stands for this setting: endpoint: mean survival time, dose: 400.0 mg/kg/injection, schedule: Q01DX009 (ip), vehicle: saline with Tween-80.

Values joined by “and” are separate entries in the source; they are usually repeats but may differ in a detail not shown here. Equal values may be shown once. Toxic doses and inconclusive results are not listed. Square brackets hold non-standard residues; d marks the D form. Peptide text beside a SMILES is read from it. * marks the point of attachment. ξ: configuration not given here. Cbz = O=C(OCc1ccccc1)*; ξS = NC(CO)C(=O)O

Consider `Cc1nc(N)[nH]c(=O)c1CCCNC(=O)c1cccc(CBr)c1`, for which the T/C under setting [1] was 101 % of control; the T/C under setting [2] is 100 % of control; the T/C (endpoint: mean survival time, dose: 200.0 mg/kg/injection, schedule: Q04DX002 (ip), vehicle: Klucel (hydroxypropylcellulose) (HPC)) was 102 % of control.
With `O=C(Nc1cc(C(F)(F)F)ccc1Cl)n1cccc1`, the T/C was 113 % of control (endpoint: mean survival time, dose: 100.0 mg/kg/injection, schedule: Q01DX009 (ip), vehicle: Klucel (hydroxypropylcellulose) (HPC)); 113 % of control (endpoint: mean survival time, dose: 200.0 mg/kg/injection, schedule: Q01DX009 (ip), vehicle: Klucel (hydroxypropylcellulose) (HPC)); 106 % of control (endpoint: mean survival time, dose: 400.0 mg/kg/injection, schedule: Q01DX009 (ip), vehicle: Klucel (hydroxypropylcellulose) (HPC)).
For the compound `CCCN(C)/N=N/c1nc[nH]c1C(N)=O`, the T/C (endpoint: mean survival time, dose: 22.0 mg/kg/injection, schedule: Q01DX009 (ip), vehicle: carboxymethylcellulose (CMC)) was 120 % of control; the T/C (endpoint: mean survival time, dose: 37.5 mg/kg/injection, schedule: Q01DX Z (ip), vehicle: carboxymethylcellulose (CMC)) is 151 % of control; the T/C (endpoint: mean survival time, dose: 50.0 mg/kg/injection, schedule: Q01DX009 (ip), vehicle: carboxymethylcellulose (CMC)) was 151 % of control; the T/C (endpoint: mean survival time, dose: 50.0 mg/kg/injection, schedule: Q01DX Z (ip), vehicle: carboxymethylcellulose (CMC)) was 158 % of control; the T/C (endpoint: mean survival time, dose: 75.0 mg/kg/injection, schedule: Q01DX009 (ip), vehicle: carboxymethylcellulose (CMC)) was 157 % of control; the T/C (endpoint: mean survival time, dose: 88.0 mg/kg/injection, schedule: Q01DX001 (ip), vehicle: carboxymethylcellulose (CMC)) is 106 % of control. Moreover, the T/C (endpoint: mean survival time, dose: 89.0 mg/kg/injection, schedule: Q01DX001 (ip), vehicle: carboxymethylcellulose (CMC)) is 117 % of control; the T/C (endpoint: mean survival time, dose: 100.0 mg/kg/injection, schedule: Q01DX009 (ip), vehicle: carboxymethylcellulose (CMC)) is 152 % of control; the T/C (endpoint: mean survival time, dose: 133.0 mg/kg/injection, schedule: Q01DX001 (ip), vehicle: carboxymethylcellulose (CMC)) is 101 % of control and 124 % of control; the T/C under setting [3] was 103 % of control; the T/C under setting [4] is 104 % of control and 117 % of control; the T/C (endpoint: median survival time, dose: 12.5 mg/kg/injection, schedule: Q01DX009 (ip), vehicle: steriod suspending solution) was 116 % of control and 122 % of control. In addition, the T/C is 166 % of control (endpoint: median survival time, dose: 50.0 mg/kg/injection, schedule: Q01DX009 (ip), vehicle: steriod suspending solution) and 122 % of control (endpoint: median survival time, dose: 100.0 mg/kg/injection, schedule: Q01DX009 (ip), vehicle: steriod suspending solution).
Consider `OCCNC(=S)Nc1cccc(C(F)(F)F)c1`, for which the T/C by setting is: under setting [5], 100 % of control; under setting [6], 91 % of control; under setting [7], 97 % of control; under setting [8], 98 % of control; under setting [9], 112 % of control.
On to `CC(=O)OC1COC(n2cnc3c(=S)nc[nH]c32)C(OC(C)=O)C1OC(C)=O` (configuration not stated), for which the T/C (endpoint: mean survival time, dose: 100.0 mg/kg/injection, schedule: Q01DX001 (ip), vehicle: other) is 107 % of control; the T/C (endpoint: mean survival time, dose: 100.0 mg/kg/injection, schedule: Q01DX001 (ip), vehicle: saline) is 94 % of control; the T/C (endpoint: mean survival time, dose: 200.0 mg/kg/injection, schedule: Q01DX001 (ip), vehicle: other) is 90 % of control; the T/C (endpoint: mean survival time, dose: 200.0 mg/kg/injection, schedule: Q01DX001 (ip), vehicle: saline) is 93 % of control; the T/C (endpoint: mean survival time, dose: 400.0 mg/kg/injection, schedule: Q01DX001 (ip), vehicle: other) is 96 % of control; the T/C (endpoint: mean survival time, dose: 400.0 mg/kg/injection, schedule: Q01DX001 (ip), vehicle: saline) was 96 % of control.
Consider `CCCCCCCC/C=C\CCCCCCCC(=O)NCCCOCCOCCOCC`, for which the T/C (endpoint: mean survival time, dose: 75.0 mg/kg/injection, schedule: Q01DX009 (ip), vehicle: saline) is 97 % of control; the T/C (endpoint: mean survival time, dose: 75.0 mg/kg/injection, schedule: Q04DX003 (ip), vehicle: saline) is 94 % of control; the T/C (endpoint: mean survival time, dose: 150.0 mg/kg/injection, schedule: Q01DX009 (ip), vehicle: saline) was 101 % of control; the T/C (endpoint: mean survival time, dose: 150.0 mg/kg/injection, schedule: Q04DX003 (ip), vehicle: saline) was 90 % of control; the T/C (endpoint: mean survival time, dose: 300.0 mg/kg/injection, schedule: Q01DX009 (ip), vehicle: saline) was 87 % of control; the T/C (endpoint: mean survival time, dose: 300.0 mg/kg/injection, schedule: Q04DX003 (ip), vehicle: saline) was 95 % of control.
Turning to `C=CCNc1ccnc(SC)n1`, the T/C was 94 % of control (endpoint: mean survival time, dose: 100.0 mg/kg/injection, schedule: Q01DX001 (ip), vehicle: gum acacia) and 103 % of control (endpoint: mean survival time, dose: 200.0 mg/kg/injection, schedule: Q01DX001 (ip), vehicle: gum acacia).
Regarding `CC(=O)NC1CCC(S(=O)(=O)N2N=NC3CCCCC32)CC1` (configuration not stated), the T/C reads like this: under setting [5], 98 % of control; under setting [7], 93 % of control; under setting [10], 92 % of control.
As to `COC(=O)C=P(c1ccccc1)(c1ccccc1)c1ccccc1`, the T/C is, setting by setting: (endpoint: mean survival time, dose: 75.0 mg/kg/injection, schedule: Q01DX001 (ip), vehicle: carboxymethylcellulose (CMC)) 98 % of control; (endpoint: mean survival time, dose: 150.0 mg/kg/injection, schedule: Q01DX001 (ip), vehicle: carboxymethylcellulose (CMC)) 98 % of control; under setting [4], 101 % of control.
Consider `N#CCCCCC(=O)c1ccc(O)cc1O`, for which the T/C reads like this: under setting [1], 97 % of control; under setting [2], 105 % of control; (endpoint: mean survival time, dose: 200.0 mg/kg/injection, schedule: Q01DX001 (ip), vehicle: Klucel (hydroxypropylcellulose) (HPC)) 101 % of control.
As to `O=C1c2ccccc2-c2cc(S)ccc21`, the T/C runs as follows: (endpoint: mean survival time, dose: 100.0 mg/kg/injection, schedule: Q01DX001 (ip), vehicle: carboxymethylcellulose (CMC)) 109 % of control; under setting [3], 104 % of control; (endpoint: mean survival time, dose: 400.0 mg/kg/injection, schedule: Q01DX001 (ip), vehicle: carboxymethylcellulose (CMC)) 101 % of control.
Take `COC(=O)C(=O)c1c(-c2ccc[n+](Cc3ccccc3)c2)[nH]c2ccccc12`: the T/C is 101 % of control (endpoint: mean survival time, dose: 75.0 mg/kg/injection, schedule: Q01DX001 (ip), vehicle: saline) and 93 % of control (endpoint: mean survival time, dose: 150.0 mg/kg/injection, schedule: Q01DX001 (ip), vehicle: saline).
On to `O=c1[nH]cnc2nc(/N=N/SCCO)[nH]c12`, for which the T/C runs as follows: (endpoint: mean survival time, dose: 44.4 mg/kg/injection, schedule: Q01DX Z (ip), vehicle: methylcellulose (MC)) 101 % of control; (endpoint: mean survival time, dose: 66.6 mg/kg/injection, schedule: Q01DX Z (ip), vehicle: methylcellulose (MC)) 108 % of control; (endpoint: mean survival time, dose: 100.0 mg/kg/injection, schedule: Q01DX Z (ip), vehicle: methylcellulose (MC)) 116 % of control; (endpoint: mean survival time, dose: 150.0 mg/kg/injection, schedule: Q01DX Z (ip), vehicle: methylcellulose (MC)) 121 % of control.
Turning to `COC(=O)C(CO)NC(=O)CNC(=O)OCc1ccccc1` (stereo not drawn) (Cbz-Gly-[ξS]-OMe), the T/C runs as follows: (endpoint: mean survival time, dose: 100.0 mg/kg/injection, schedule: Q04DX003 (ip), vehicle: water) 98 % of control; (endpoint: mean survival time, dose: 200.0 mg/kg/injection, schedule: Q04DX003 (ip), vehicle: water) 94 % of control; (endpoint: mean survival time, dose: 400.0 mg/kg/injection, schedule: Q04DX003 (ip), vehicle: water) 96 % of control.
As for `COC1OC2COC(c3ccccc3)OC2C2OC12` (configuration not stated), the T/C runs as follows: (endpoint: mean survival time, dose: 100.0 mg/kg/injection, schedule: Q01DX001 (ip), vehicle: saline with Tween-80) 94 % of control; under setting [5], 102 % of control; under setting [6], 100 % of control and 90 % of control; (endpoint: mean survival time, dose: 100.0 mg/kg/injection, schedule: Q04DX003 (ip), vehicle: saline with Tween-80) 91 % of control and 86 % of control; (endpoint: mean survival time, dose: 200.0 mg/kg/injection, schedule: Q01DX001 (ip), vehicle: saline with Tween-80) 88 % of control; under setting [7], 102 % of control. Moreover, the T/C reads like this: under setting [8], 96 % of control and 111 % of control; (endpoint: mean survival time, dose: 200.0 mg/kg/injection, schedule: Q04DX003 (ip), vehicle: saline with Tween-80) 100 % of control and 88 % of control; (endpoint: mean survival time, dose: 400.0 mg/kg/injection, schedule: Q01DX001 (ip), vehicle: saline with Tween-80) 88 % of control; under setting [10], 97 % of control; under setting [9], 100 % of control and 97 % of control; (endpoint: mean survival time, dose: 400.0 mg/kg/injection, schedule: Q04DX003 (ip), vehicle: saline with Tween-80) 90 % of control and 93 % of control.
